Experimental data from US12692238B2, “Substituted pyridazinone herbicides” (FMC CORPORATION, priority 2020, dated 2026).

Legend:
Assay type in all cases: in vivo
[1] = test system: wheat (Triticum aestivum); assay: Test A preemergence, wheat; conditions: 125 g ai/ha, 0 to 100 scale, 10 days
[2] = test system: goosegrass (Eleusine indica); assay: Test A preemergence, goosegrass; conditions: 0 to 100 scale, 10 days
Excerpt: (§1) Seeds of plant species selected from barnyardgrass (Echinochloa crus-galli), blackgrass (Alopecurus myosuroides), corn (Zea mays), foxtail, giant (giant foxtail, Setaria faberi), foxtail, green (green foxtail, Setaria viridis), goosegrass (Eleusine indica), kochia (Bassia scoparia), oat, wild (wild oat, Avena fatua), palmer amaranth (pigweed, palmer, Amaranthus palmeri), redroot pigweed (Amaranthus retroflexus), ragweed (common ragweed, Ambrosia artemisiifolia), ryegrass, Italian (Italian ryegrass, Lolium multiflorum), and soybean (Glycine max) were planted into a blend of loam soil and sand and treated preemergence with a directed soil spray using test chemicals formulated in a non-phytotoxic solvent mixture which included a surfactant.
(§2) At the same time, plants selected from these crop and weed species and also wheat (Triticum aestivum), galium (catchweed bedstraw, Galium aparine) and horseweed (Erigeron canadensis) were planted in pots containing the same blend of loam soil and sand and treated with postemergence applications of test chemicals formulated in the same manner. Plants ranged in height from 2 to 10 cm and were in the one- to two-leaf stage for the postemergence treatment. Treated plants and untreated controls were maintained in a greenhouse for 10 days, after which time all treated plants were compared to untreated controls and visually evaluated for injury. Plant response ratings, summarized in Table A, are based on a 0 to 100 scale where 0 is no effect and 100 is complete control. A dash (-) response means no test result.

[3] = test system: ryegrass, Italian (Italian ryegrass, Lolium multiflorum); assay: Test A preemergence, ryegrass, Italian; conditions: 0 to 100 scale, 10 days
Procedure, shortened: (§3)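 Compounds were sprayed in a non-phytotoxic, surfactant-containing solvent. For preemergence the spray was directed onto freshly seeded loam/sand soil; for postemergence it went onto one- to two-leaf plants. Visual injury, 0–100, was recorded at 10 days.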

kochia (Bassia scoparia) [4] = assay: Test A postemergence, kochia; conditions: 10 days
Procedure, shortened: as §3

[5] = test system: galium (catchweed bedstraw, Galium aparine); assay: Test A postemergence, galium; conditions: 10 days
Procedure, shortened: as §3

soybean (Glycine max) [6] = assay: Test A postemergence, soybean; conditions: 10 days
Excerpt: as §1, §2

[7] = test system: blackgrass (Alopecurus myosuroides); assay: Test A postemergence, blackgrass; conditions: 10 days
Procedure, shortened: as §3

[8] = test system: ragweed (common ragweed, Ambrosia artemisiifolia); assay: Test A preemergence, ragweed; conditions: 0 to 100 scale, 10 days
Procedure, shortened: as §3

rice (Oryza sativa) = assay: Test B flooded paddy test, rice; conditions: 250 g ai/ha, Flood; visually evaluated after 10 to 14 days
Procedure, shortened: (§4)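 Greenhouse paddy assay in which test compounds were dosed into floodwater standing 3 cm above the soil. Plants were at the 2-leaf stage, the water level was kept constant, and effects were rated visually 10–14 days later on a 0–100 scale relative to controls.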

kochia (Bassia scoparia) [9] = assay: Test A preemergence, kochia; conditions: 0 to 100 scale, 10 days
Procedure, shortened: as §3

[10] = test system: oat, wild (wild oat, Avena fatua); assay: Test A preemergence, oat, wild; conditions: 0 to 100 scale, 10 days
Excerpt: as §1, §2

[11] = test system: sedge, umbrella (small-flower umbrella sedge, Cyperus difformis); assay: Test B flooded paddy test, sedge, umbrella; conditions: 250 g ai/ha, Flood; visually evaluated after 10 to 14 days
Procedure, shortened: as §4

[12] = test system: blackgrass (Alopecurus myosuroides); assay: Test A preemergence, blackgrass; conditions: 0 to 100 scale, 10 days
Excerpt: as §1, §2

[13] = test system: horseweed (Erigeron canadensis); assay: Test A postemergence, horseweed; conditions: 10 days
Excerpt: as §1, §2

[14] = test system: barnyardgrass (Echinochloa crus-galli); assay: Test B flooded paddy test, barnyardgrass; conditions: 250 g ai/ha, Flood; visually evaluated after 10 to 14 days
Procedure, shortened: as §4

[15] = test system: foxtail, giant (giant foxtail, Setaria faberi); assay: Test A postemergence, foxtail, giant; conditions: 10 days
Procedure, shortened: as §3

[16] = test system: ryegrass, Italian (Italian ryegrass, Lolium multiflorum); assay: Test A postemergence, ryegrass, Italian; conditions: 10 days
Procedure, shortened: as §3

[17] = test system: ducksalad (Heteranthera limosa); assay: Test B flooded paddy test, ducksalad; conditions: 250 g ai/ha, Flood; visually evaluated after 10 to 14 days
Procedure, shortened: as §4

[18] = test system: foxtail, giant (giant foxtail, Setaria faberi); assay: Test A preemergence, foxtail, giant; conditions: 0 to 100 scale, 10 days
Procedure, shortened: as §3

corn (Zea mays) [19] = assay: Test A preemergence, corn; conditions: 0 to 100 scale, 10 days
Excerpt: as §1, §2

[20] = test system: goosegrass (Eleusine indica); assay: Test A postemergence, goosegrass; conditions: 10 days
Excerpt: as §1, §2

corn (Zea mays) [21] = assay: Test A postemergence, corn; conditions: 10 days
Procedure, shortened: as §3

[22] = test system: ragweed (common ragweed, Ambrosia artemisiifolia); assay: Test A postemergence, ragweed; conditions: 10 days
Procedure, shortened: as §3

[23] = test system: oat, wild (wild oat, Avena fatua); assay: Test A postemergence, oat, wild; conditions: 10 days
Excerpt: as §1, §2

[24] = test system: palmer amaranth (pigweed, palmer, Amaranthus palmeri); assay: Test A postemergence, palmer amaranth; conditions: 10 days
Excerpt: as §1, §2

[25] = test system: wheat (Triticum aestivum); assay: Test A postemergence, wheat; conditions: 10 days
Procedure, shortened: as §3

soybean (Glycine max) [26] = assay: Test A preemergence, soybean; conditions: 0 to 100 scale, 10 days
Excerpt: as §1, §2

[27] = test system: palmer amaranth (pigweed, palmer, Amaranthus palmeri); assay: Test A preemergence, palmer amaranth; conditions: 0 to 100 scale, 10 days
Excerpt: as §1, §2

[28] = 31 g ai/ha, postemergence, 0 to 100 scale (0 no effect, 100 complete control)
[29] = Postemergence, 125 g ai/ha, 0 to 100 scale

`Cc1ccc2cc3ccc(C)cc3c(-c3c(OCOC(=O)N(C)C)c(Cl)nn(C)c3=O)c2c1` [Compound 18] was tested, and the “Plant response rating, Wheat” value [1] was 0, the “Plant response rating, Goosegrass” value ([2]; 31 g ai/ha) was 0 and the “Plant response rating, Goosegrass” value ([2]; 125 g ai/ha) was 0. The “Plant response rating, Ryegrass, Italian” value ([3]; 31 g ai/ha) was 0, the “Plant response rating, Ryegrass, Italian” value ([3]; 125 g ai/ha) was 0 and the “Plant response rating, Kochia” value (kochia (Bassia scoparia) [4]; [28]) was 40. For the same compound, the “Plant response rating, Kochia” value (kochia (Bassia scoparia) [4]; [29]) was 70, the “Plant response rating, Galium” value [5, 28] was 0 and the “Plant response rating, Galium” value [5, 29] was 30. For the same compound, the “Plant response rating, Soybean” value (soybean (Glycine max) [6]; [28]) was 0, the “Plant response rating, Soybean” value (soybean (Glycine max) [6]; [29]) was 20 and the “Plant response rating, Blackgrass” value [7, 28] was 0. For the same compound, the “Plant response rating, Blackgrass” value [7, 29] was 0, the “Plant response rating, Ragweed” value ([8]; 31 g ai/ha) was 0 and the “Plant response rating, Ragweed” value ([8]; 125 g ai/ha) was 0. For the same compound, the “Plant response rating, Rice (0 to 100 scale where 0 is no effect and 100 is complete control)” value (rice (Oryza sativa)) was 0, the “Plant response rating, Kochia” value (kochia (Bassia scoparia) [9]; 31 g ai/ha) was 0 and the “Plant response rating, Kochia” value (kochia (Bassia scoparia) [9]; 125 g ai/ha) was 0. For the same compound, the “Plant response rating, Oat, Wild” value ([10]; 31 g ai/ha) was 0, the “Plant response rating, Oat, Wild” value ([10]; 125 g ai/ha) was 0 and the “Plant response rating, Sedge, Umbrella (0 to 100 scale where 0 is no effect and 100 is complete control)” value [11] was 15. The “Plant response rating, Blackgrass” value ([12]; 31 g ai/ha) was 0, the “Plant response rating, Blackgrass” value ([12]; 125 g ai/ha) was 0 and the “Plant response rating, Horseweed” value [13, 29] was 20. For the same compound, the “Plant response rating, Barnyardgrass (0 to 100 scale where 0 is no effect and 100 is complete control)” value [14] was 0, the “Plant response rating, Foxtail, Giant” value [15, 28] was 0 and the “Plant response rating, Foxtail, Giant” value [15, 29] was 0. For the same compound, the “Plant response rating, Ryegrass, Italian” value [16, 28] was 0, the “Plant response rating, Ryegrass, Italian” value [16, 29] was 0 and the “Plant response rating, Ducksalad (0 to 100 scale where 0 is no effect and 100 is complete control)” value [17] was 0. The “Plant response rating, Foxtail, Giant” value ([18]; 31 g ai/ha) was 0, the “Plant response rating, Foxtail, Giant” value ([18]; 125 g ai/ha) was 0 and the “Plant response rating, Corn” value (corn (Zea mays) [19]; 31 g ai/ha) was 0. The “Plant response rating, Corn” value (corn (Zea mays) [19]; 125 g ai/ha) was 0, the “Plant response rating, Goosegrass” value [20, 28] was 0 and the “Plant response rating, Goosegrass” value [20, 29] was 0. The “Plant response rating, Corn” value (corn (Zea mays) [21]; [28]) was 0, the “Plant response rating, Corn” value (corn (Zea mays) [21]; [29]) was 0 and the “Plant response rating, Ragweed” value [22, 28] was 30. For the same compound, the “Plant response rating, Ragweed” value [22, 29] was 100, the “Plant response rating, Oat, Wild” value [23, 28] was 0 and the “Plant response rating, Oat, Wild” value [23, 29] was 0. For the same compound, the “Plant response rating, Pigweed, Palmer” value [24, 28] was 30, the “Plant response rating, Pigweed, Palmer” value [24, 29] was 50 and the “Plant response rating, Wheat” value [25, 28] was 0. The “Plant response rating, Wheat” value [25, 29] was 0, the “Plant response rating, Soybean” value (soybean (Glycine max) [26]; 31 g ai/ha) was 0 and the “Plant response rating, Soybean” value (soybean (Glycine max) [26]; 125 g ai/ha) was 0. For the same compound, the “Plant response rating, Pigweed, Palmer” value ([27]; 31 g ai/ha) was 0 and the “Plant response rating, Pigweed, Palmer” value ([27]; 125 g ai/ha) was 40.

For `Cn1nc(Cl)c(OCOC(=O)C(C)(C)C)c(-c2c3ccccc3cc3ccccc23)c1=O` [Compound 19], the “Plant response rating, Wheat” value [1] was 0, the “Plant response rating, Goosegrass” value ([2]; 31 g ai/ha) was 0 and the “Plant response rating, Goosegrass” value ([2]; 125 g ai/ha) was 30. For the same compound, the “Plant response rating, Ryegrass, Italian” value ([3]; 31 g ai/ha) was 0, the “Plant response rating, Ryegrass, Italian” value ([3]; 125 g ai/ha) was 80 and the “Plant response rating, Kochia” value (kochia (Bassia scoparia) [4]; [28]) was 40. The “Plant response rating, Kochia” value (kochia (Bassia scoparia) [4]; [29]) was 80, the “Plant response rating, Galium” value [5, 28] was 100 and the “Plant response rating, Galium” value [5, 29] was 100. For the same compound, the “Plant response rating, Soybean” value (soybean (Glycine max) [6]; [28]) was 0, the “Plant response rating, Soybean” value (soybean (Glycine max) [6]; [29]) was 30 and the “Plant response rating, Blackgrass” value [7, 28] was 0. For the same compound, the “Plant response rating, Blackgrass” value [7, 29] was 0, the “Plant response rating, Ragweed” value ([8]; 31 g ai/ha) was 80 and the “Plant response rating, Ragweed” value ([8]; 125 g ai/ha) was 80. The “Plant response rating, Rice (0 to 100 scale where 0 is no effect and 100 is complete control)” value (rice (Oryza sativa)) was 0, the “Plant response rating, Kochia” value (kochia (Bassia scoparia) [9]; 31 g ai/ha) was 0 and the “Plant response rating, Kochia” value (kochia (Bassia scoparia) [9]; 125 g ai/ha) was 80. The “Plant response rating, Oat, Wild” value ([10]; 31 g ai/ha) was 0, the “Plant response rating, Oat, Wild” value ([10]; 125 g ai/ha) was 0 and the “Plant response rating, Sedge, Umbrella (0 to 100 scale where 0 is no effect and 100 is complete control)” value [11] was 85. For the same compound, the “Plant response rating, Blackgrass” value ([12]; 31 g ai/ha) was 0, the “Plant response rating, Blackgrass” value ([12]; 125 g ai/ha) was 10 and the “Plant response rating, Horseweed” value [13, 28] was 100. The “Plant response rating, Horseweed” value [13, 29] was 90, the “Plant response rating, Barnyardgrass (0 to 100 scale where 0 is no effect and 100 is complete control)” value [14] was 35 and the “Plant response rating, Foxtail, Giant” value [15, 28] was 10. For the same compound, the “Plant response rating, Foxtail, Giant” value [15, 29] was 50, the “Plant response rating, Ryegrass, Italian” value [16, 28] was 0 and the “Plant response rating, Ryegrass, Italian” value [16, 29] was 10. The “Plant response rating, Ducksalad (0 to 100 scale where 0 is no effect and 100 is complete control)” value [17] was 100, the “Plant response rating, Foxtail, Giant” value ([18]; 31 g ai/ha) was 10 and the “Plant response rating, Foxtail, Giant” value ([18]; 125 g ai/ha) was 70. The “Plant response rating, Corn” value (corn (Zea mays) [19]; 31 g ai/ha) was 0, the “Plant response rating, Corn” value (corn (Zea mays) [19]; 125 g ai/ha) was 0 and the “Plant response rating, Goosegrass” value [20, 28] was 10. The “Plant response rating, Goosegrass” value [20, 29] was 10, the “Plant response rating, Corn” value (corn (Zea mays) [21]; [28]) was 10 and the “Plant response rating, Corn” value (corn (Zea mays) [21]; [29]) was 20. For the same compound, the “Plant response rating, Ragweed” value [22, 28] was 100, the “Plant response rating, Ragweed” value [22, 29] was 100 and the “Plant response rating, Oat, Wild” value [23, 28] was 10. For the same compound, the “Plant response rating, Oat, Wild” value [23, 29] was 10, the “Plant response rating, Pigweed, Palmer” value [24, 28] was 100 and the “Plant response rating, Pigweed, Palmer” value [24, 29] was 100. The “Plant response rating, Wheat” value [25, 28] was 0, the “Plant response rating, Wheat” value [25, 29] was 0 and the “Plant response rating, Soybean” value (soybean (Glycine max) [26]; 31 g ai/ha) was 0. The “Plant response rating, Soybean” value (soybean (Glycine max) [26]; 125 g ai/ha) was 0, the “Plant response rating, Pigweed, Palmer” value ([27]; 31 g ai/ha) was 90 and the “Plant response rating, Pigweed, Palmer” value ([27]; 125 g ai/ha) was 100.
